Assay results as given in PubChem BioAssay (NCI).
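Test compounds were applied to cells in 96-well plates for 48 hours at 5 doses. TGI is the concentration that stops growth completely.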

How the values were obtained:
Assay in all cases: NCI tumour cell line growth inhibition, 48 h
[1] = test system: MOLT-4 leukemia
[2] = test system: HOP-92 NSCLC
[3] = test system: EKVX NSCLC
[4] = test system: MDA-MB-435
[5] = test system: MALME-3M melanoma
[6] = test system: LOX IMVI melanoma
[7] = test system: SNB-75 CNS
[8] = test system: KM12 colon
[9] = test system: OVCAR-4 ovarian
[10] = test system: NCI-H460 lung
[11] = test system: HS 578T breast
[12] = test system: NCI-H23 lung
[13] = test system: MCF7 breast
[14] = test system: A549 NSCLC
[15] = test system: A498 renal
[16] = test system: DU-145 prostate
[17] = test system: SK-OV-3 ovarian
[18] = test system: MDA-MB-231 breast
[19] = test system: HCC-2998 colon
[20] = test system: TK-10 renal
[21] = test system: OVCAR-3 ovarian
[22] = test system: MDA-N
[23] = test system: OVCAR-8 ovarian
[24] = test system: HCT-116 colon
[25] = test system: SK-MEL-2 melanoma
[26] = test system: UACC-62 melanoma
[27] = test system: COLO 205 colon
[28] = test system: HT29 colon
[29] = test system: SF-539 CNS
[30] = test system: NCI-H522 lung
[31] = test system: SF-295 CNS
[32] = test system: ACHN renal
[33] = test system: UO-31 renal
[34] = test system: SW-620 colon
[35] = test system: SF-268 CNS
[36] = test system: SK-MEL-28 melanoma
[37] = test system: T-47D breast
[38] = test system: UACC-257 melanoma
[39] = test system: SK-MEL-5 melanoma
[40] = test system: HOP-62 NSCLC
[41] = test system: BT-549 breast
[42] = test system: NCI-H226 lung
[43] = test system: OVCAR-5 ovarian
[44] = test system: RXF 393 renal
[45] = test system: PC-3 prostate
[46] = test system: U251 CNS
[47] = test system: M14 melanoma
[48] = test system: SN12C renal
[49] = test system: IGROV1 ovarian
[50] = test system: CAKI-1 renal
[51] = test system: 786-0 renal
[52] = test system: SNB-19 CNS
[53] = test system: HCT-15 colon

Compound: CC1CCC2(OC1)OC1CC3C4CC=C5CC(OC6OC(CO)C(OC7OC(C)C(OC8OC(C)C(O)C(O)C8O)C(O)C7O)C(O)C6OC6OC(C)C(O)C(O)C6O)CCC5(C)C4CCC3(C)C1C2C (stereo not drawn)
- TGI [1]: 958 nM
- TGI [2]: 1900 nM
- TGI [3]: 2100 nM
- TGI [4]: 1180 nM
- TGI [5]: 1500 nM
- TGI [6]: 733 nM
- TGI [7]: 1640 nM
- TGI [8]: 1430 nM
- TGI [9]: 1330 nM
- TGI [10]: 3250 nM
- TGI [11]: 1770 nM
- TGI [12]: 3130 nM
- TGI [13]: 3250 nM
- TGI [14]: 1390 nM
- TGI [15]: 1550 nM
- TGI [16]: 2540 nM
- TGI [17]: 2310 nM
- TGI [18]: 1330 nM
- TGI [19]: 1370 nM
- TGI [20]: 2680 nM
- TGI [21]: 3310 nM
- TGI [22]: 1430 nM
- TGI [23]: 1590 nM
- TGI [24]: 1920 nM
- TGI [25]: 2500 nM
- TGI [26]: 1510 nM
- TGI [27]: 3060 nM
- TGI [28]: 2200 nM
- TGI [29]: 1520 nM
- TGI [30]: 2170 nM
- TGI [31]: 1590 nM
- TGI [32]: 2790 nM
- TGI [33]: 1670 nM
- TGI [34]: 2890 nM
- TGI [35]: 2030 nM
- TGI [36]: 1850 nM
- TGI [37]: 2890 nM
- TGI [38]: 2020 nM
- TGI [39]: 3060 nM
- TGI [40]: > 100000 nM
- TGI [41]: 3070 nM
- TGI [42]: 2860 nM
- TGI [43]: 2390 nM
- TGI [44]: 2050 nM
- TGI [45]: 2080 nM
- TGI [46]: 1960 nM
- TGI [47]: 2270 nM
- TGI [48]: 1040 nM
- TGI [49]: 2590 nM
- TGI [50]: 2550 nM
- TGI [51]: 2290 nM
- TGI [52]: 2400 nM
- TGI [53]: 2920 nM
